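These data come from cells grown in 96-well plates and exposed to compound for 48 hours at five concentrations. The concentration for 50% growth inhibition is given as GI50. TGI: total growth inhibition.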
What was measured:
Test in all cases: NCI tumour cell line growth inhibition, 48 h
DU-145 prostate = system: DU-145 prostate
LOX IMVI melanoma = system: LOX IMVI melanoma
HS 578T breast = system: HS 578T breast
MCF7 breast = system: MCF7 breast
SW-620 colon = system: SW-620 colon
TK-10 renal = system: TK-10 renal
HOP-92 NSCLC = system: HOP-92 NSCLC
MALME-3M melanoma = system: MALME-3M melanoma
SK-MEL-5 melanoma = system: SK-MEL-5 melanoma
UACC-62 melanoma = system: UACC-62 melanoma
NCI-H23 lung = system: NCI-H23 lung
SF-539 CNS = system: SF-539 CNS
A498 renal = system: A498 renal
SF-268 CNS = system: SF-268 CNS
BT-549 breast = system: BT-549 breast
OVCAR-3 ovarian = system: OVCAR-3 ovarian
MDA-MB-231 breast = system: MDA-MB-231 breast
MDA-MB-435 = system: MDA-MB-435
OVCAR-5 ovarian = system: OVCAR-5 ovarian
OVCAR-8 ovarian = system: OVCAR-8 ovarian
NCI/ADR-RES ovarian = system: NCI/ADR-RES ovarian
UACC-257 melanoma = system: UACC-257 melanoma
NCI-H460 lung = system: NCI-H460 lung
HCT-15 colon = system: HCT-15 colon
UO-31 renal = system: UO-31 renal
OVCAR-4 ovarian = system: OVCAR-4 ovarian
SNB-75 CNS = system: SNB-75 CNS

Q: `Cc1ccc(C(=O)Nc2ccc(CNCCN3CCNCC3)c(C(F)(F)F)c2)cc1C#Cc1cnc2cccnn12` was tested. Which TGI (DU-145 prostate) did it give?
A: The TGI was 3.39 µM.

Q: What about the GI50 (LOX IMVI melanoma) of the same compound?
A: Its GI50 is 1.73 µM.

Q: What about the TGI (LOX IMVI melanoma) of the same compound?
A: Its TGI is 3.18 µM.

Q: What about the GI50 (HS 578T breast) of the same compound?
A: The GI50 was 2.07 µM.

Q: And the TGI (HS 578T breast)?
A: The TGI was 5.25 µM.

Q: What about the GI50 (MCF7 breast) of the same compound?
A: Its GI50 is 1.78 µM.

Q: What about the TGI (MCF7 breast) of the same compound?
A: Its TGI is 3.4 µM.

Q: What about the GI50 (SW-620 colon) of the same compound?
A: Its GI50 is 1.94 µM.

Q: And the TGI (SW-620 colon)?
A: The TGI was 3.65 µM.

Q: What about the GI50 (TK-10 renal) of the same compound?
A: Its GI50 is 1.97 µM.

Q: What about the TGI (TK-10 renal) of the same compound?
A: Its TGI is 3.58 µM.

Q: What about the GI50 (HOP-92 NSCLC) of the same compound?
A: Its GI50 is 1.45 µM.

Q: What about the TGI (HOP-92 NSCLC) of the same compound?
A: Its TGI is 3.25 µM.

Q: What about the GI50 (MALME-3M melanoma) of the same compound?
A: Its GI50 is 1.71 µM.

Q: What about the TGI (MALME-3M melanoma) of the same compound?
A: The TGI was 3.39 µM.

Q: What about the GI50 (SK-MEL-5 melanoma) of the same compound?
A: The GI50 was 1.76 µM.

Q: What about the TGI (SK-MEL-5 melanoma) of the same compound?
A: Its TGI is 3.25 µM.

Q: What about the GI50 (UACC-62 melanoma) of the same compound?
A: Its GI50 is 1.74 µM.

Q: And the TGI (UACC-62 melanoma)?
A: The TGI was 3.27 µM.

Q: What about the GI50 (NCI-H23 lung) of the same compound?
A: Its GI50 is 1.85 µM.

Q: And the TGI (NCI-H23 lung)?
A: Its TGI is 3.45 µM.

Q: And the GI50 (SF-539 CNS)?
A: Its GI50 is 1.63 µM.

Q: What about the TGI (SF-539 CNS) of the same compound?
A: Its TGI is 3.06 µM.

Q: What about the GI50 (A498 renal) of the same compound?
A: Its GI50 is 1.8 µM.

Q: What about the TGI (A498 renal) of the same compound?
A: Its TGI is 3.36 µM.

Q: What about the GI50 (SF-268 CNS) of the same compound?
A: Its GI50 is 2.14 µM.

Q: What about the TGI (SF-268 CNS) of the same compound?
A: The TGI was 4.11 µM.

Q: What about the GI50 (BT-549 breast) of the same compound?
A: Its GI50 is 2.17 µM.

Q: And the TGI (BT-549 breast)?
A: Its TGI is 3.91 µM.

Q: What about the GI50 (OVCAR-3 ovarian) of the same compound?
A: Its GI50 is 1.97 µM.

Q: And the TGI (OVCAR-3 ovarian)?
A: Its TGI is 3.61 µM.

Q: And the GI50 (MDA-MB-231 breast)?
A: The GI50 was 1.41 µM.

Q: What about the TGI (MDA-MB-231 breast) of the same compound?
A: The TGI was 2.97 µM.

Q: And the GI50 (MDA-MB-435)?
A: Its GI50 is 1.77 µM.

Q: What about the TGI (MDA-MB-435) of the same compound?
A: The TGI was 3.3 µM.

Q: And the GI50 (OVCAR-5 ovarian)?
A: The GI50 was 1.79 µM.

Q: And the TGI (OVCAR-5 ovarian)?
A: Its TGI is 3.31 µM.

Q: And the GI50 (OVCAR-8 ovarian)?
A: Its GI50 is 2.07 µM.

Q: What about the TGI (OVCAR-8 ovarian) of the same compound?
A: The TGI was 4.01 µM.

Q: And the GI50 (NCI/ADR-RES ovarian)?
A: The GI50 was 7.54 µM.

Q: And the TGI (NCI/ADR-RES ovarian)?
A: The TGI was 26.7 µM.

Q: And the GI50 (UACC-257 melanoma)?
A: The GI50 was 1.93 µM.

Q: What about the TGI (UACC-257 melanoma) of the same compound?
A: Its TGI is 3.85 µM.

Q: And the GI50 (NCI-H460 lung)?
A: Its GI50 is 1.99 µM.

Q: What about the TGI (NCI-H460 lung) of the same compound?
A: Its TGI is 3.81 µM.

Q: And the GI50 (HCT-15 colon)?
A: The GI50 was 1.87 µM.

Q: And the TGI (HCT-15 colon)?
A: The TGI was 3.43 µM.

Q: What about the GI50 (UO-31 renal) of the same compound?
A: Its GI50 is 2.46 µM.

Q: And the TGI (UO-31 renal)?
A: The TGI was 5.9 µM.

Q: And the GI50 (OVCAR-4 ovarian)?
A: Its GI50 is 2.04 µM.

Q: And the TGI (OVCAR-4 ovarian)?
A: The TGI was 4.26 µM.

Q: And the GI50 (SNB-75 CNS)?
A: The GI50 was 0.714 µM.

Q: And the TGI (SNB-75 CNS)?
A: Its TGI is 3.53 µM.

Source: PubChem BioAssay (NCI)
